Reference: patent publication US12570694B2, “Peptides and pharmaceutical, nutraceutical or veterinary compositions for hair loss prevention and/or treatment” (VYTRUS BIOTECH, S.L., priority 2016, dated 2026)

How the values were obtained:
[1] = tested on: human hair follicle papilla cells (HFDPC); test: In vitro proliferation of hair follicle dermal papilla cells (BrdU incorporation); type: cell-based
Protocol: In order to test the effects of the cell-free supernatants, as well as of the peptides of the invention, a proliferation assay was conducted onto human hair follicle papilla cells (CELL APPLICATIONS, INC; Normal human hair follicles from temporal scalp. Single donor: Ref. 602-05a. Lot. 2092.).
The culture media was a Papilla Cell Basal Medium supplemented with the Growth Supplements kit (Relative composition: Fetal bovine serum, growth factors and antibiotics. Application: 6% v/v).
HFDPC proliferation was assessed determining the proliferation index (%). Cell DNA replication was quantified by means of incorporated bromodeoxiuridine (BrdU) into DNA of treated cells. BrdU assay allows measuring cell proliferation based on cell capability of incorporating BrdU during S-phase of the cell cycle. Cells being divided incorporated BrdU that is further detected by means of antibodies and immunocytochemistry detection.
Cells were seeded at confluence in a 96-well plate. After stabilization and synchronization of cell cultures the tested products were added (at the final concentration indicated in Table 1 of Examples. After that, BrdU was added to cultures and HFDPC were incubated at 37° C. until complete BrdU incorporation. BrdU amounts were proportional to the number of cell divisions and thus to the growth of the treated culture.
Data are depicted in FIG. 1, FIG. 2 and FIG. 3, wherein it is shown the proliferation index (%) of HFDPC, calculated as the percentage of growing in relation to the basal control (non-treated HFDPC) which is accorded a 100% value of proliferation index.

[2] = tested on: human dermal fibroblasts (HDF); test: Wound healing (scratch) assay on human dermal fibroblasts; type: cell-based; conditions: FIG. 17; 5 μg/ml and 0.05 μg/ml; 5 days of treatment; triplicate mean; vs 0.1% FBS basal, 10% FBS and TGF-β1 positive controls
Protocol: In order to test the effect of the sulfaction state of the peptides on their activity, it is herewith provided as reference example a wound healing assay conducted onto human dermal fibroblasts (HDF).
Human dermal fibroblasts were seeded in a 24-well plate and were grown to confluence. A 2 mm width scratch was done on the culture monolayer. Then the test products in culture medium were added and the cicatrisation process was followed by means of phase contrast microscopy. With this aim, photographs were taken at initial of the test (T=0 h) before the scratching and after the treatment (at 12 h and at 72 h). Cicatrisation process was evaluated by quantifying wound area reduction at each time.
Data at the end of the test (5 days of treatment) are depicted in FIG. 17, wherein the wound healing potential is depicted as the Healed Area (in μm^2) for assayed peptide.
The results derive from a triplicate test. Values of cicatrised area (or % of cicatrisation) are the mean values.

CH3—C(O)—YIYT-NH2 (Ac-YIYT-NH2) [SEQ ID NO: 6, in vivo: dissolved 0.025% w/w in PBS buffered fortifying solution 2×]
proliferation index of HFDPC ([1]; FIG. 1, relative to basal control (non-treated HFDPC) = 100%, concentrations C1/C2 of Table 1): showed the best results | proliferation index of HFDPC ([1]; FIGS. 2 and 3, peptides with or without end-terminal modifications at 5.86, 2.93, 1.46 μg/ml, basal control = 100%): can promote cell proliferation | wound healing potential, Healed Area [2]: independent of its sulfaction state
